{"source": "patent US20260240842A1", "about": "“METHODS TO PREVENT THERAPY RESISTANCE IN MELANOMA VIA BLOCKING GENOMIC INSTABILITY” (THE REGENTS OF THE UNIVERSITY OF CALIFORNIA, priority 2022, published 2026)", "tested_on": "M229 and M245 cell lines", "assay": "WGS of short-term treated cell lines: treatment-specific ecDNA+CGR genomic spans", "type": "cell-based, human", "conditions": "co-treatment with MAPKi for 10 to 11 days, FIG. 5H", "description": "FIGS. 5A-5H. Resistance-driver ecDNAs and HSRs dynamically track with resistance and DNA-PKi prevents size-expansion of ecDNAs and CGRs early on MAPKi treatment. FIGS. 5A to 5C, Metaphase DNA-FISH of paired parental and acquired resistant BRAF^V600MUT (5A and 5B) or NRAS^Q61MUT (5C) cell lines without or with drug withdrawal showing ecDNA- or HSR-amplicons harboring BRAF, RAF1 or NRAS. Left, representative images; right, quantifications per cell. Ruler, 15 μm. P values (Unpaired two-tailed Student's t-test): *, p<0.05; **, p<0.01; ***, p<0.001. […] FIG. 5G: Representative images (left) and quantification (right) of metaphase DNA-FISH showing HSR harboring BRAF in M249 cells treated with vehicle or BRAFi+MEKi, with or without NU7026 and/or ABT888 for 31 days. […] FIG. 5H: Average total genomic spans of treatment-specific ecDNAs+CGRs in M229 and M245 cell lines (background ecDNA+CGR spans detected in vehicle-treated cells were filtered). […]\nGenomic DNA (gDNA) and total RNA were extracted from frozen tumor tissue preserved in RNALater or snap-frozen tumor tissue using the QIAGEN AllPrep DNA/RNA Mini Kit and the Ambion mirVana miRNA Isolation Kit. […] After library construction, indexed libraries were quantified for equal molar pooling and paired-end sequenced with a read length of 2×150 bp on the Illumina NovaSeq 6000 S4 platform. […]"}
{"molecule": "O=c1cc(N2CCOCC2)oc2c1ccc1ccccc12", "note": "[NU7026]", "values": [{"measurement": "MAPKi-elicited treatment-specific ecDNA+CGR genomic spans", "result": "blunted the expansion of ecDNA+CGR genomic spans in both cell lines"}]}
